Results: patent US8557516B2, “AKT tyrosine 176 phosphorylation cancer biomarker” (H. Lee Moffitt Cancer Center and Research Institute, Inc., priority 2009, dated 2013)

System: AKT Tyr176-phosphorylation
Assay: Cell fractionation and immunoblotting of pTyr176-AKT in MCF-7 cells
Format: cell-based, human
Conditions: MCF-7 cells serum starved 24 h; insulin 50 ng/ml or heregulin 30 ng/ml
Description: (§1) FIG. 27 is a blot showing Tyr176-phosphorylation regulates AKT plasma membrane localization. MCF-7 cells were serum starved (24 h) and treated with insulin (50 ng/ml) or for indicated times. Cell lysates were fractionated and IB with the indicated antibodies. Input panels pAck1 (Tyr), pIR(Tyr) and pHER-2(Tyr) represents IP with respective antibodies followed by IB with pTyr antibodies.
as §1, with “28” for “27”, “(C) heregulin (30” for “with insulin (50”, “ng/ml)” for “ng/ml) or”
FIG. 29 is a blot showing Tyr176-phosphorylation regulates AKT plasma membrane localization. MCF7 cells were transfected with control or Ack1-specific siRNAs (40 nM) for 48 h and treated with heregulin for 40 mins. Cell lysates were fractionated and IB with indicated antibodies.
FIG. 34 is a blot showing Tyr176-phosphorylation of AKT is PI3K-independent. MCF-7 cells were pretreated with LY294002 (10 μM, 1 h) followed by heregulin for 40 mins. Cell lysates were fractionated and membrane fraction was subjected to IB with indicated antibodies.
Cell fractionation, immunoprecipitations and kinase assay. […]

Substance | time of optimal AKT Tyr-176 phosphorylation and plasma membrane accumulation [min]
insulin: growth factor ligand used to stimulate cells | 30
heregulin | 40
